pIC50: −log10 of the molar value.
These compounds were tested against T1, MR (Homo sapiens, UniProt P08235) (assay: Cell-Based Reporter Assay (Gal4 DBD-MR LBD luciferase reporter, antagonist mode)). Details: antagonist mode vs aldosterone at EC80; transfected human liver cells (Huh7); luciferase readout; Examples 3, 6, 12 and 13 tested in analogous format with minor variations.
T1 construct: expressed in transfected cells; host or cells: Huh7 human liver cells, transient transfection
T1 sequence (P08235 726-964 limits assumed): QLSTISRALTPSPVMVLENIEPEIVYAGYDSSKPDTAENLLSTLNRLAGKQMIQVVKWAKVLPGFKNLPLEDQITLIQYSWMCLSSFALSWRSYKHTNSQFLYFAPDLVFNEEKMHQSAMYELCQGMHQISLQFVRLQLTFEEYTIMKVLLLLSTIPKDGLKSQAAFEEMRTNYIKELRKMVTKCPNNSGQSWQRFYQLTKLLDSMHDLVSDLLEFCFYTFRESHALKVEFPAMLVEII
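Note: cells co-transfected with a Gal4 response element luciferase plasmid, compound exposure overnight before lysis and luminescence counting, IC50 reflects reduced aldosterone-stimulated reporter signal.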

pIC50	SMILES
6.30	Cc1cc(C2=NN(c3ccc(C#N)c(C)n3)[C@@H](C3CCCC3)C2)cc(C)c1O [Example 57, (R)-6-(5-cyclopentyl-3-(4-hydroxy-3,5-dimethylphenyl)-4,5-dihydro-1H-pyrazol-1-yl)-2-methylnicotinonitrile]
6.68	Cc1nc(N2N=C(c3cc(F)c(O)c(F)c3)C[C@@H]2C2CCCC2)ccc1C#N [Example 61, (R)-6-(5-cyclopentyl-3-(3,5-difluoro-4-hydroxyphenyl)-4,5-dihydropyrazol-1-yl)-2-methylnicotinonitrile]
7.03	Cc1nc(N2N=C(c3ccc(O)c(F)c3)C[C@@H]2C2CCCC2)ccc1C#N [Example 62, (R)-6-(5-cyclopentyl-3-(3-fluoro-4-hydroxyphenyl)-4,5-dihydropyrazol-1-yl)-2-methylnicotinonitrile]
8.00	Cc1nc(N2N=C(c3ccc4c(c3)C(C)(C)OC(=O)N4)C[C@@H]2C2CCCC2)ccc1C#N [Example 64, (R)-6-(5-cyclopentyl-3-(4,4-dimethyl-2-oxo-2,4-dihydro-1H-benzo[d][1,3]oxazin-6-yl)-4,5-dihydro-1H-pyrazol-1-yl)-2-methylnicotinonitrile]
6.59	CC(=O)Nc1cccc(C2=NN(c3ccc(C#N)c(C)n3)[C@@H](C3CCCC3)C2)n1 [Example 66, (R)—N-(6-(1-(5-cyano-6-methylpyridin-2-yl)-5-cyclopentyl-4,5-dihydro-1H-pyrazol-3-yl)pyridin-2-yl)acetamide]
6.77	Cc1nc(N2N=C(c3cccc(OC(C)C)n3)C[C@@H]2C2CCCC2)ccc1C#N [Example 67, (R)-6-(5-cyclopentyl-3-(6-isopropoxypyridin-2-yl)-4,5-dihydro-1H-pyrazol-1-yl)-2-methylnicotinonitrile]
6.83	COc1nc(C2=NN(c3ccc(C#N)c(C)c3)C(C3CC(F)(F)C3)C2)ccc1C(=O)O (stereo not shown) [Example 70, 6-(1-(4-cyano-3-methylphenyl)-5-(3,3-difluorocyclobutyl)-4,5-dihydro-1H-pyrazol-3-yl)-2-methoxynicotinic acid]

Source: patent US20120022058A1, “4,5-DIHYDRO-1H-PYRAZOLE COMPOUNDS AND THEIR PHARMACEUTICAL USES” (Pfizer Inc., priority 2009, published 2012)
